Patent publication US12097171B2, “Petrolatum-based PHMB compositions and methods of treatment for onychomycosis” (GLOBAL HEALTH SOLUTIONS LLC, priority 2015, dated 2024)
Where “and” joins values, the source holds several entries; their conditions need not be identical. Equal entries are not always repeated.

How the values were obtained:
[1] = tested on: skin of female albino New Zealand White rabbits; assay: Rabbit skin irritation; conditions: per rabbit, 24, 48 and 72 hour observations, two test sites, sulfate
Method: Within 24 hours to 4 hours before test application, the backs of female albino New Zealand White rabbits were clipped free of hair, exposing 2 test and 2 control areas on each side of the spine with a size of approximately 15 cm×15 cm. The two test sites are located on the left cranial section and the right caudal section of the dorsal region. The two control sites are located on the left caudal and right cranial section of the dorsal region. FIG. 4 depicts the arrangement of test and control sites. The exposed skin is wiped with alcohol and dried. Rabbits of acceptable skin quality were selected and used for testing.
A 25×25 mm gauze patch saturated with 0.5 mL of 0.9% NaCl is used for the control and applied to the clipped control sites. The patches are secured using hypoallergenic, waterproof, surgical tape over the test and control sites. The animal's trunk is securely wrapped so as to maintain the position of the patches. Patches are left applied for a minimum of four hours.
After patch removal, the test and control sites were then scored for erythema and edema at 1, 24, 48 and 72 hours after patch removal. Only the 24, 48, and 72 hour observations were scored and used for calculations. If no response was expected, testing was conducted using three animals per test article. If irritation was anticipated, one animal was tested initially. If the first animal received a score of 2 or less for either erythema or edema, 2 additional rabbits were used to conclude the test.
This total was divided by the total number of observations. The same was done for the control sites. […] These scores for each animal were added and divided by the total number of animals to give the Primary Irritation Index. […] For any response, the Maximum Irritation Response, the time of onset of the response and the time of maximum response was recorded.
To positively validate the test, 10% sodium dodecyl sulfate (SDS), which is a known dermal irritant, in petroleum jelly was applied to a 2.5 cm×2.5 cm gauze patch. As a negative control, 0.5 mL of 0.9% NaCl was applied to a 2.5 cm×2.5 cm gauze patch. […]

[2] = tested on: human subjects having onychomycosis; conditions: comparison value for standard of care; cited from earlier work

| Compound | ED (edema) score total ([1]; patch at least four hours) | ER (erythema) score total ([1]; patch at least four hours) | ER + ED = Total [1] | effectiveness of standard of care treatments [2] |
| --- | --- | --- | --- | --- |
| CCCCCCCCCCCCOS(=O)(=O)[O-].[Na+] [10% SDS, sodium dodecyl sulfate] | 19 and 21 and 14 | 21 and 23 and 18 | 40 and 44 and 32 |  |
| CN(C/C=C/C#CC(C)(C)C)Cc1cccc2ccccc12 [Lamisil] |  |  |  | 20% |
